Reference: patent US20050003367A1, “Methods and compositions for rapid development of screening assays” (priority 2002, published 2005)
“Also recorded” adds a separate entry of the source.

Experiments:
[1] = cited from earlier work
[2] = biological target: T1, Vanilloid Receptor-1 (VR1) (Homo sapiens, UniProt Q8NER1); test: VR1 calcium response assay in HEK-293 clones (VIPRII, 96-well); format: cell-based; details: for IC50: responses to 10 μM capsaicin, capsazepine 0.01-100 μM
T1 construct: endogenous in cells; host or cells: HEK-293 clones 5B11 and 5B5

MC4R = biological target: T2, MC4R (Homo sapiens, UniProt P32245); test: MC4R CRE β-lactamase reporter assay in HEK 293 (P3D8) MC4 cell lines; format: cell-based; details: cells pretreated with the MC4 antagonist
T2 construct: endogenous in cells; host or cells: HEK 293 P3D8 (4XCRE-β-lactamase reporter) clones, e.g. MC4.49
Method: (§1) Unless otherwise noted, β-lactamase reporter expression was determined by plating cells into 96 well plates at approx. 10^5 cells/well, and loading with 1 μM CCF2-AM in Hanks' balanced salt solution (HBSS) containing phenol red at 22 ° C. for a period between 1 and 2 h. For visual determination, an epifluorescence microscope (Zeiss 25CFL) equipped with a 10× Fluor objective was used. The filter set contained a 405/20 exciter, a 420 dichroic mirror, and a 435 long-pass filter (Chroma Technologies, Brattleboro Vt.). Fluorescence was then quantified on a Cytofluor 4000 fluorescence plate reader using 395/12.5 nm excitation and emission was detected via 460/50 (blue) and 535/40 (green) band pass filters. Emission intensities from blank wells containing no cells were subtracted from wells containing cells. Calibration of β-lactamase enzyme levels were determined in cell lysates as described by Zlokarnik et al.(1998) Science 279 84-88. Replicate samples of cells were lysed by three cycles of freeze thawing in PBS. β-Lactamase activity in the lysate was measured from the rate of hydrolysis of 1 nmol of CCF2 in 100 μl in a Cytofluor fluorimeter. […]
Three out of the eight characterized MC4 cell lines were chosen for further pharmacological characterization that included a dose response curve with NDP-α-MSH. […] The calculated values were consistent with published data. […]

PPARγ = biological target: T3, PPARγ (Homo sapiens, UniProt P37231); test: PPARγ Gal4-DBD UAS β-lactamase reporter assay, HEK293 clone 4G5; format: cell-based; details: 10 μM or 32 μM BADGE 1 h at 37° C. before rosiglitazone 1 nM-10 μM
T3 construct: expressed in transfected cells; host or cells: HEK293 7xUAS-β-lactamase line (HEKUASBLA), clone 4G5; The targeting vector was integrated by homologous recombination
T3 sequence (P37231 238-503 limits assumed): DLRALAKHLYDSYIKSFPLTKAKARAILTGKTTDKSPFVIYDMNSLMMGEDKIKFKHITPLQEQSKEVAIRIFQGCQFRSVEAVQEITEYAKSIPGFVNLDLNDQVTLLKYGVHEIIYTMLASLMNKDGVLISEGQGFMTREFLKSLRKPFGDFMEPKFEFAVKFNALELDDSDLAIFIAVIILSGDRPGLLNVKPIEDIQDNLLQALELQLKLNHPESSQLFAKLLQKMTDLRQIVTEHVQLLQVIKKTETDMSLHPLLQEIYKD
Method: as §1
Single cells were sorted into 96 well plates and expanded. […] At least 16 h before the assay, cell clones on one copy of the assay plates were stimulated as described above. β-lactamase activity was detected in individual clones as described in Example 6. […]

[3] = biological target: T4, Mineralocorticoid receptor (MR) (Homo sapiens, UniProt P08235); test: MR Gal4-DBD UAS β-lactamase reporter assay, HEK/UAS/GAL4-MR clone 1B4; format: cell-based
T4 construct: expressed in transfected cells; host or cells: HEK293 7xUAS-β-lactamase line (HEKUASBLA), clone 1B4. pKI-Gal4-DBD-MR was integrated by homologous recombination
T4 sequence (P08235 726-964 limits assumed): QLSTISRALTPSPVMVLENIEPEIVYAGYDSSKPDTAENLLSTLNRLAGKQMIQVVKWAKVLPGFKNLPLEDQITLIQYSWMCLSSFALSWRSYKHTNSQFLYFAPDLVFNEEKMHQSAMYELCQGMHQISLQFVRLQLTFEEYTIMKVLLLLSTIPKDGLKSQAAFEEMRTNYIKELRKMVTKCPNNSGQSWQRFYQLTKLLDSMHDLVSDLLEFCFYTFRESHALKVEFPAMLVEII

T1 sequence (Q8NER1 whole entry): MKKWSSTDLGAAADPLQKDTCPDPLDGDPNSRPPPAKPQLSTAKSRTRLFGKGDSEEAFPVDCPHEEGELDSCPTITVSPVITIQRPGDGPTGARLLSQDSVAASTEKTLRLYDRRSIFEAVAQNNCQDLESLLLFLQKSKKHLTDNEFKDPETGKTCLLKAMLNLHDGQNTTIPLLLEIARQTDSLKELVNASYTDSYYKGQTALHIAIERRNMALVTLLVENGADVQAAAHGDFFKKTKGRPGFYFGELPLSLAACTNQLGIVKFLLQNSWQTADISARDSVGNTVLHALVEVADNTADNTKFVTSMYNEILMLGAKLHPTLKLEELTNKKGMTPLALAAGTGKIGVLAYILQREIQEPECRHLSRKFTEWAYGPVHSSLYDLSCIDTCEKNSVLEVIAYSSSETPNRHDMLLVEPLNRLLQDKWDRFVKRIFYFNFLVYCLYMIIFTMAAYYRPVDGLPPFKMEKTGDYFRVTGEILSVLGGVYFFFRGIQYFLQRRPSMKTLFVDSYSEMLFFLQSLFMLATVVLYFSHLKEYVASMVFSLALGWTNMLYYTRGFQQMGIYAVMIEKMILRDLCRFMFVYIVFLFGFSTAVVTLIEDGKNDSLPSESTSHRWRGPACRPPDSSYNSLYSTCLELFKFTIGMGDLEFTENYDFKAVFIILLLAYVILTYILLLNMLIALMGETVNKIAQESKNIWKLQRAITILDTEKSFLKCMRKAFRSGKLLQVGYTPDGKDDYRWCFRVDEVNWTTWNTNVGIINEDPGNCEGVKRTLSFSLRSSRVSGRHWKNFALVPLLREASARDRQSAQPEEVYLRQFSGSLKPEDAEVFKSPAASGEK
T2 sequence (P32245 whole entry): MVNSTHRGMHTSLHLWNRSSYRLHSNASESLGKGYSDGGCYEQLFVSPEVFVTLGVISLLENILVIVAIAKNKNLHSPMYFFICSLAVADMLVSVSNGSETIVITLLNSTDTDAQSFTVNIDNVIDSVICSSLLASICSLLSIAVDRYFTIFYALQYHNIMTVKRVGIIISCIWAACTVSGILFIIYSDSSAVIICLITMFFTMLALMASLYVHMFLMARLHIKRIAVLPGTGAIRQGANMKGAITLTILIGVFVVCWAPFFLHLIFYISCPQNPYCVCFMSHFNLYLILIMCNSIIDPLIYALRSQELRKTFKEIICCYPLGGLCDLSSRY

For SNARF-4F carboxylic acid, the pKa [1] is listed as ~6.4.

For `Oc1cc2c(cc1O)CN(C(=S)NCCc1ccc(Cl)cc1)CCC2` [capsazepine], the “effect on VR1 responses to capsaicin” value ([2]; 50 μM capsazepine, clones 5B11 and 5B5) was “failed to respond to any concentration of capsaicin; also recorded: inhibited”, the IC50 ([2]; clone 5B5) was 7.1 µM and the IC50 ([2]; clone 5B11) was 12.8 µM.

With HS024 the “inhibition of the response to α-MSH or NDP-α-MSH” value (MC4R) was “inhibited in a concentration-dependant manner”.

For `C=C(C)[C@]12C[C@@H](C)[C@@]34O[C@](Cc5ccccc5)(O[C@@H]1[C@@H]3C=C(COC(=O)Cc1ccc(O)c(OC)c1)C[C@]1(O)C(=O)C(C)=C[C@@H]41)O2` [resiniferatoxin], the EC50 [2] was 0.427 µM.

For `CC(C)(c1ccc(OCC2CO2)cc1)c1ccc(OCC2CO2)cc1` (centres unmarked) [BADGE], the “inhibition of cell response to rosiglitazone” value (PPARγ) was “Inhibition of the cell response to the stimuli”.

With `C[C@]12CCC(=O)C=C1CC[C@@H]1[C@@H]2[C@@H](O)C[C@@]2(C)[C@H]1CC[C@]2(O)C(=O)CO` [Cortisol] the EC50 [3] was 0.004 µM.
